Values of other authors as cited in patent US20080275118A1, “HEALTH AND COSMETIC COMPOSITION AND REGIME FOR STIMULATING HAIR GROWTH AND THICKENING ON THE HEAD, INCLUDING THE SCALP, EYELASHES, AND EYEBROWS, AND WHICH DISCOURAGES HAIR LOSS” (priority 2008, published 2008).

Tested on: scalp hair
Details: in man, tests carried out on the scalp; Roenigk 1988

## C=CC(O)(C/C=C/[C@H]1[C@H](O)CC(=O)[C@@H]1C/C=C\CCCC(=O)OC)CCCC (stereo partly shown) [viprostol]
  hair density: increasing hair density
